Laboratory results reported in patent US20030139609A1, “Aziridinyl quinone antitumor agents based on indoles and cyclopent[b]indoles” (priority 2001, published 2003).
Several values for one entry are separate records, joined by “and”; a condition that tells them apart may be missing. Equal entries are not always repeated. Where two headings read alike, the source gives them in different places.

Legend:
[1] = test system: 600 bp calf thymus DNA; assay: DNA reductive alkylation by catalytically reduced aziridinyl quinones; format: biochemical; conditions: for DNA alkylation percentage: catalytic reduction, anaerobic, pH 7.4 tris buffer, 30° C., 24 h, absorbance at 550 nm
Experimental: DNA Alkylation Screening of Series 1-9. The extent of DNA reductive alkylation was determined by catalytic reduction of the aziridinyl quinones in the presence of 600 bp calf thymus DNA. Oxidative workup afforded DNA colored blue as a result of the aminoquinone chromophore. […] The anaerobic conditions employed for DNA reductive alkylation assays is not meant to mimic the environment of tumor cells. These conditions do permit an accurate assessment of the structural requirements for DNA alkylation by the hydroquinone species. To be sure, agents incapable of akylating DNA under these ideal conditions will not do so in the typical cellular environment.
Alkylation of DNA by Reduced Indoloquinones. To a mixture of 1-2 mg of sonicated (600 bp) calf thymus DNA in 2.0 mL of 0.05 M of pH 7.4 tris buffer and 2 mg of Pd on carbon was added a five-to-one base pair equivalent amount of the indoloquinone dissolved in 0.5 mL of dimethylsulfoxide. The resulting solution was degassed under argon for 30 min., after which the mixture was purged with H2 for 10 min. The solution was then purged with argon for 10 min. and placed in a 30° C. bath for 24 h. The reaction was opened to the air and the catalyst was removed with a Millex-PF […] syringe filter. The filtrate was adjusted to 0.3 M acetate with a 3 M stock solution of pH 5.1 acetate and then diluted with two volumes of ethanol. The mixture was chilled at −20° C. for 12 h and the DNA pellet collected by centrifuging at 12,000 g for 20 min. The pellet was redissolved in water and then precipitated and centrifuged again. The resulting blue or red pellet was suspended in ethanol, centrifuged, and dried. The dried pellet was weighed and dissolved in 1 mL of double distilled water resulting in a clear colored solution with […]max˜550 nm, □˜750 M^−1 cm^−1. This is the chromophore of the aminoquinone resulting from nucleophile-mediated opening of the aziridine ring. Model 2′-chloroethyl aminoquinones for extinction coefficient determination were prepared by treatment of the indoloquinone with HCl. {Skibo, E. B. and Xing, C., Chemistry and DNA Alkylation Reactions of Aziridinyl Quinones: Development of an Efficient Alkylating Agent of the Phosphate Backbone, Biochemistry, 1998, 37, 15199-15213}.

[2] = test system: National Cancer Institute 60-cell line; assay: NCI 60-cell line in vitro screen (average cytotoxicity and cancer specificity); conditions: mean over 60 cell lines; ± value measures cancer specificity
Experimental: Cytotoxic and Cytostatic Screening of Series 1-9. […] The cytostatic parameters include GI50 and TGI, which are the concentrations of drug required for 50% growth inhibition and total growth inhibition, respectively. The cytotoxic parameter is the LC50, which is the concentration required for 50% cell kill.
4. […] Cancer specificity is measured from the ± value under the “Average Log LC50 60-Cell Line” heading of Table 5. A ± value greater than 2 indicates a greater than 100-fold higher/lower cytotoxicity in some histological cancer types compared to the mean cytotoxicity.
The DT-diaphorase levels in the National Cancer Institute 60-cell line in vitro screen have been determined and correlated with the cytotoxicity of antitumor agents activated by 2-electron reduction. {Fitzsimmons, S. A., Workman, P., Grever, M., Paull, K., Camalier, R., and Lewis, A. D., Reductase Enzyme Expression Across the National Cancer Institute Tumor Cell Line Panel: Correlation with Sensitivity To Mitomycin C and EO9, J. Natl. Cancer Inst., 1996, 88, 259-69}. Sensitive cancers usually include NSC lung and colon cancers (and to a lesser extent CNS, melanoma, and renal cancers) by virtue of their elevated DT-diaphorase levels.

[3] = test system: NCI-H460 non-small-lung cancer cell line; assay: NCI In Vitro Cell Line Screening, NSC H460 cell line; format: cell-based
Excerpt: Cytotoxic and Cytostatic Screening of Series 1-9.

[4] = test system: B16 melanoma; assay: animal or person; format: in vivo; conditions: for response vs control in vivo at 2 mg/kg / response vs control in vivo at 3 mg/kg / response vs control in vivo at 5 mg/kg: Mus musculus, B16, 600 h, read-out: In vivo T/C (Treated/Control); for in vivo toxicity (in words) / in vivo antitumor activity (in words): 2, 3 or 5 mg/kg/day
Excerpt: Shown in Tables 6 and 7 are B16 melanoma syngraft assays {Griswold, D. P., Consideration of the Subcutaneously Implanted B16 Melanoma as a Screening Model for Potential Anticancer Agents, Cancer Chemother Reports, 1972, 3, 315-324} of some members of Series 1-9, as well as related compounds previously reported from this laboratory. {Xing, C. G., Wu, P., Skibo, E. B., and Dorr, R. T., Design of cancer-specific antitumor agents based on aziridlinylcyclopent[b]indoloquinones, J. Med. Chem., 2000, 43, 457-466}. Each agent was evaluated at three doses in C57/bl mice: 2, 3 or 5 mg/kg/day, on days 1, 5, and 9 after subcutaneous tumor implantation of 10^5 cells in the front flank on day 0. “Toxic” means that there was early lethality, or ≧50% lethality prior to any deaths in the control group. The treated over control values (T/C) were measured at day 25 of the study. A T/C value <40% is considered active.
In vivo Evaluation. The B-16 melanoma in C57/bl mice syngraft model was employed to determine in vivo activity. {Griswold, D. P., Consideration of the Subcutaneously Implanted B16 Melanoma as a Screening Model for Potential Anticancer Agents, Cancer Chemother Reports, 1972, 3, 315-324}. Each agent was evaluated at three doses: 2, 3 or 5 mg/kg/day, on days 1, 5, and 9 after subcutaneous tumor implantation of 10^5 cells in the front flank on day 0. “Toxic” means that there was early lethality, or ≧50% lethality prior to any deaths in the control group. The treated over control values (T/C) were measured at day 25 of the study. A T/C value<40% is considered active. […] The control was obtained with drug-free animals.

[5] = 3 mg/Kg/Day on days 1, 5, 9, T/C at day 25, <40% active
[6] = 5 mg/Kg/Day on days 1, 5, 9, T/C at day 25, <40% active
[7] = 2 mg/Kg/Day on days 1, 5, 9, T/C at day 25, <40% active

CC(=O)OCc1[nH]c2c(c1COC(C)=O)C(=O)C(N1CC1)=CC2=O [Compound 6e, 5-Aziridinyl-2,3-di(acetoxymethyl)indole-4,7-dione]
DNA alkylation (in words) [1]: high DNA alkylation percentages | DNA alkylation percentage [1]: 43%

CCOC(=O)c1[nH]c2c(c1CO)C(=O)C(N1CC1)=C(C)C2=O [Compound 7b, 5-Aziridinyl-2-ethylcarboxyl-3-hydroxymethyl-6-methylindole-4,7-dione]
Average Log LC50 60-Cell Line [2]: −5.69 ± 2.31 and −5.75 ± 2.25 | GI50 ([3]; Homo sapiens, NCI-H460, read-out: Log GI50 NSC H460 (converted)): 10 nM | Log TGI NSC H460 ([3]; concentration for total growth inhibition): −7.99 and −7.96

CC1=C(N2CC2)C(=O)c2[nH]c(CO)c(CO)c2C1=O [Compound 8a, 6-Aziridinyl-2,3-di(hydroxymethyl)-5-methylindole-4,7-dione]
DNA alkylation percentage [1]: 4% | In vivo T/C (Treated/Control) [4, 5]: Toxic (“Toxic” means ≧ 50% lethality before any control growth deaths) | In vivo T/C (Treated/Control) [4, 6]: Toxic (“Toxic” means ≧ 50% lethality before any control growth deaths) | response vs control in vivo at 2 mg/kg [4, 7]: 54%

COC1CCc2c1[nH]c1c2C(=O)C(C)=C(N2CC2)C1=O (stereo not shown) [reference compound]
in vivo toxicity (in words) [4]: toxicity only seen at the highest dose

CC1=C(N2CC2)C(=O)c2[nH]c(C)c(C)c2C1=O [reference compound]
response vs control in vivo at 2 mg/kg [4]: 22% | response vs control in vivo at 3 mg/kg [4]: > 50% | response vs control in vivo at 5 mg/kg [4]: > 50%

CC1=C(N2CC2)C(=O)c2c([nH]c(C)c2C)C1=O [reference compound]
In vivo T/C (Treated/Control) [4, 6]: Toxic (“Toxic” means ≧ 50% lethality before any control growth deaths) | response vs control in vivo at 2 mg/kg [4, 7]: 10% | response vs control in vivo at 3 mg/kg [4, 5]: 60%

CC1=C(N2CC2)C(=O)c2[nH]c(CO)c(C)c2C1=O [reference compound]
in vivo antitumor activity (in words) [4]: antitumor activity is retained | in vivo toxicity (in words) [4]: without much toxicity | response vs control in vivo at 2 mg/kg [4, 7]: 61% | response vs control in vivo at 3 mg/kg [4, 5]: 37% | response vs control in vivo at 5 mg/kg [4, 6]: 34%

CC(=O)OCc1[nH]c2c(c1C)C(=O)C(C)=C(N1CC1)C2=O [reference compound]
in vivo antitumor activity (in words) [4]: inactive at all doses

CC(=O)OCc1[nH]c2c(c1C)C(=O)C(N1CC1)=C(C)C2=O [reference compound]
In vivo T/C (Treated/Control) [4, 5]: Toxic (“Toxic” means ≧ 50% lethality before any control growth deaths) | In vivo T/C (Treated/Control) [4, 6]: Toxic (“Toxic” means ≧ 50% lethality before any control growth deaths) | response vs control in vivo at 2 mg/kg [4, 7]: 47%
